Key:
[1] = tested on: M3 Shiloh plants; assay: Tolerance rating of M3 progeny field plots sprayed with imazamox at the three-leaf stage; type: in vivo, Triticum aestivum
Protocol: Samples of 1,500 Shiloh variety seeds were each placed in a 1,000 ml beaker and covered with deionized water to at least 1 inch above the seed level. The beakers were then placed in a refrigerator at 4° C. for 15-20 hours. The seed samples were removed from the refrigerator and brought up to room temperature over an approximately 3 hour period by placing the beaker at room temperature. In some cases, the warming process was accelerated by adding deionized water to the beakers.
The deionized water was drained off the seeds, and the beaker was filled with a sodium azide solution to at least 1 inch above the seed level. The sodium azide solution was prepared by adding 27.218 g KH2PO4 to 1,500 ml deionized water, bringing the solution to pH 3 with concentrated H3PO4, and bringing the final solution to 2 L volume with deionized water. Just prior to use, 0.2604 g NaN3 was added, and the solution was kept in the dark. After addition of the sodium azide solution to the seeds, the beakers were incubated in a dark area at room temperature for 2 hours, with occasional stirring.
The sodium azide treatment solution was decanted, and the seed samples were rinsed twice with deionized water. Then the seed samples were covered with deionized water to at least 1 inch above seed level and soaked at room temperature for 1 hour, with occasional stirring. The deionized water was decanted, and the seeds were spread evenly on paper towels to dry. The seeds were planted in the field near Berthoud, Colo. in six 5 feet by 40 feet plots. Approximately 15 pounds of M2 seed were harvested, and approximately 466,000 seeds were planted near Platteville, Colo. The fields were sprayed with 1× (40 g ai ha^−1 (imazamox)) or 2× (80 g ai ha^−1 (imazamox)).
Plants tolerant to the herbicide were identified and transplanted into 1 gallon pots, and put into vernalization for 4 weeks at 45° F. Fourteen single plant selections were made out of the 2× rate area. The tolerant M2 plants were taken out of vernalization, grown out in a Berthoud, Colo. greenhouse, and M3 plants were planted in approximately 4 feet by 5 feet plots near Berthoud, Colo. The plots were sprayed with 80 g ai ha^−1 (imazamox) when the plants were at the three-leaf stage, and the results of the fourteen progenies were rated as shown in Table 1.

[2] = tested on: Shiloh-08; assay: Greenhouse screen of Shiloh-08 seedlings with imazamox at the three-leaf stage; type: in vivo, Triticum aestivum; conditions: twelve seeds, 40 g ai ha^−1 imazamox
[3] = tested on: iShiloh-8/iGDN F2's; assay: Test cross with a known Als1 line, F2 screen for herbicide tolerance (Table 2); type: in vivo, Triticum aestivum; conditions: test cross of Table 2; herbicide not named at this place
Protocol: (§1) Two test-cross experiments of Shiloh-8 with a known Als1 line were performed.

[4] = tested on: iShiloh-8/imi GDN F2's; assay: Test cross EXP 2001-2 Winter, F2 screen for herbicide tolerance (Table 3); type: in vivo, Triticum aestivum
Protocol: as §1

[5] = tested on: iShiloh-8; assay: Test cross EXP 2001-2 Winter, parent check (Table 3); type: in vivo, Triticum aestivum; conditions: number of plants of 8; herbicide not given
Protocol: as §1

[6] = tested on: Shiloh; assay: Test cross EXP 2001-2 Winter, wild type check (Table 3); type: in vivo, Triticum aestivum; conditions: number of plants of 7; herbicide not given
Protocol: as §1

[7] = tested on: imi GDN; assay: Test cross EXP 2001-2 Winter, known Als1 line check (Table 3); type: in vivo; conditions: number of plants of 2; herbicide not given
Protocol: as §1

[8] = tested on: iSHILOH-08; assay: Multiple field imidazolinone herbicide imazamox tolerance comparisons (Table 5); type: in vivo, Triticum aestivum
Protocol: (§2) Agronomic and comparative imidazolinone herbicide imazamox tolerance were then evaluated under field conditions. Table 4 summarizes the yield and agronomic evaluations comparing Shiloh-8 and wild type Shiloh plants. These trials were typical cereal evaluation experiments using incomplete randomized block three replication design. Plots were 1.54 m×4.62 m at harvest. Table 5 summarizes multiple field imidazolinone herbicide imazamox tolerance comparisons between Shiloh-8 and the standard tolerant control […]. These plots ranged from a single row 1 m to larger 1.54 m×4.62 m plots.

[9] = tested on: 9604 (iFEDEL); assay: Multiple field imidazolinone herbicide imazamox tolerance comparisons (Table 5), standard tolerant control; type: in vivo, Triticum aestivum; conditions: scale 1-no effect 10-dead
Protocol: as §2

[10] = number of plants of 167 F2's, herbicide not given

COCc1cnc(C2=NC(C)(C(C)C)C(=O)N2)c(C(=O)O)c1 (stereo not drawn) [imazamox]
Tolerance of M3 Shiloh plants to 80 g ai ha^−1 (imazamox) ([1]; line Shiloh-01, 80 g ai ha^−1, three-leaf stage): Medium MR-MS | Tolerance of M3 Shiloh plants to 80 g ai ha^−1 (imazamox) ([1]; line Shiloh-03, 80 g ai ha^−1, three-leaf stage): Discard-Sensitive | Tolerance of M3 Shiloh plants to 80 g ai ha^−1 (imazamox) ([1]; line Shiloh-04, 80 g ai ha^−1, three-leaf stage): Discard-Sensitive | Tolerance of M3 Shiloh plants to 80 g ai ha^−1 (imazamox) ([1]; line Shiloh-05, 80 g ai ha^−1, three-leaf stage): Discard-Sensitive | Tolerance of M3 Shiloh plants to 80 g ai ha^−1 (imazamox) ([1]; line Shiloh-06, 80 g ai ha^−1, three-leaf stage): Discard-Sensitive | Tolerance of M3 Shiloh plants to 80 g ai ha^−1 (imazamox) ([1]; line Shiloh-07, 80 g ai ha^−1, three-leaf stage): Discard-Sensitive | Tolerance of M3 Shiloh plants to 80 g ai ha^−1 (imazamox) ([1]; line Shiloh-08, 80 g ai ha^−1, three-leaf stage): All Good MR-R | Tolerance of M3 Shiloh plants to 80 g ai ha^−1 (imazamox) ([1]; line Shiloh-09, 80 g ai ha^−1, three-leaf stage): Discard-Sensitive | Tolerance of M3 Shiloh plants to 80 g ai ha^−1 (imazamox) ([1]; line Shiloh-10, 80 g ai ha^−1, three-leaf stage): Discard-Sensitive | Tolerance of M3 Shiloh plants to 80 g ai ha^−1 (imazamox) ([1]; line Shiloh-11, 80 g ai ha^−1, three-leaf stage): Discard-Sensitive | Tolerance of M3 Shiloh plants to 80 g ai ha^−1 (imazamox) ([1]; line Shiloh-12, 80 g ai ha^−1, three-leaf stage): Discard-Sensitive | Tolerance of M3 Shiloh plants to 80 g ai ha^−1 (imazamox) ([1]; line Shiloh-13, 80 g ai ha^−1, three-leaf stage): Discard-Sensitive | Tolerance of M3 Shiloh plants to 80 g ai ha^−1 (imazamox) ([1]; line Shiloh-14, 80 g ai ha^−1, three-leaf stage): Medium MR-MS | Reaction of Shiloh-08 plants to imazamox screen [2]: confirmed a heritable homozygous reaction | Genetic segregation for tolerance in the F2 population [3]: no genetic segregation for tolerance | DGP+ Brown sheath [4, 10]: 0 | Dead or Dying growth point [4, 10]: 0 | Strong Survivors [4, 10]: 140 | Winkled or stunted [4, 10]: 27 | Genetic segregation for tolerance in the F2 population ([4]; test cross of Table 3, herbicide not named at this place): no genetic segregation for tolerance | DGP+ Brown sheath [5]: 0 | Dead or Dying growth point [5]: 0 | Strong Survivors [5]: 7 | Winkled or stunted [5]: 1 | DGP+ Brown sheath [6]: 7 | Dead or Dying growth point [6]: 0 | Strong Survivors [6]: 0 | Winkled or stunted [6]: 0 | DGP+ Brown sheath [7]: 0 | Dead or Dying growth point [7]: 0 | Strong Survivors [7]: 1 | Winkled or stunted [7]: 1 | ′99-′00 Rate D&O Plateville, CO (early) 4 oz/ac ([8]; 4 oz/ac, early, scale 1-no effect 10-dead): 2 | ′99-′00 Rate D&O Quinter, KS (early) 4 oz/ac ([8]; 4 oz/ac, early, scale 1-no effect 10-dead, spring application, temperature dropped 19° F. the night following application): 2 | ′99-′00 Rate D&O Quinter, KS (late) 4 oz/ac ([8]; 4 oz/ac, late, scale 1-no effect 10-dead, spring application, temperature dropped 19° F. the night following application): 5 | ′99-′00 Rate D&O Plateville, CO (early) 8 oz/ac ([8]; 8 oz/ac, early, scale 1-no effect 10-dead): 3 | ′99-′00 Rate D&O Quinter, KS (early) 8 oz/ac ([8]; 8 oz/ac, early, scale 1-no effect 10-dead, spring application, temperature dropped 19° F. the night following application): 3 | ′99-′00 Rate D&O Quinter, KS (late) 8 oz/ac ([8]; 8 oz/ac, late, scale 1-no effect 10-dead, spring application, temperature dropped 19° F. the night following application): 6 | Sum ′99 M3 Progeny Rating (8 oz/ac) Field ([8]; 8 oz/ac, field): R-MR | ′99-′00 Rate D&O Plateville, CO (early) 4 oz/ac ([9]; 4 oz/ac, early): 1 | ′99-′00 Rate D&O Quinter, KS (early) 4 oz/ac ([9]; 4 oz/ac, early, spring application, temperature dropped 19° F. the night following application): 1 | ′99-′00 Rate D&O Quinter, KS (late) 4 oz/ac ([9]; 4 oz/ac, late, spring application, temperature dropped 19° F. the night following application): 8 | ′99-′00 Rate D&O Plateville, CO (early) 8 oz/ac ([9]; 8 oz/ac, early): 2 | ′99-′00 Rate D&O Quinter, KS (early) 8 oz/ac ([9]; 8 oz/ac, early, spring application, temperature dropped 19° F. the night following application): 2 | ′99-′00 Rate D&O Quinter, KS (late) 8 oz/ac ([9]; 8 oz/ac, late, spring application, temperature dropped 19° F. the night following application): 8

Reference: US9175299B2, “Mutation involved in increased tolerance to imidazolinone herbicides in plants” (BASF AGROCHEMICAL PRODUCTS, B.V., priority 2004, dated 2015)
